# Reference: publication PMC8315078, “Molecular imaging of fibroblast activation protein after myocardial infarction using the novel radiotracer [^68Ga]MHLL1” (Theranostics, 2021)
# Legend:
# [1] = target: T1, fibroblast activation protein (human FAP, hFAP) (Homo sapiens, UniProt Q12884); test: displacement of […]MHLL1 by cold compound in hFAP-transfected HT1080 cells (internalized activity); wild-type cells negative; assay type: cell-based
# T1 sequence (Q12884 1-760): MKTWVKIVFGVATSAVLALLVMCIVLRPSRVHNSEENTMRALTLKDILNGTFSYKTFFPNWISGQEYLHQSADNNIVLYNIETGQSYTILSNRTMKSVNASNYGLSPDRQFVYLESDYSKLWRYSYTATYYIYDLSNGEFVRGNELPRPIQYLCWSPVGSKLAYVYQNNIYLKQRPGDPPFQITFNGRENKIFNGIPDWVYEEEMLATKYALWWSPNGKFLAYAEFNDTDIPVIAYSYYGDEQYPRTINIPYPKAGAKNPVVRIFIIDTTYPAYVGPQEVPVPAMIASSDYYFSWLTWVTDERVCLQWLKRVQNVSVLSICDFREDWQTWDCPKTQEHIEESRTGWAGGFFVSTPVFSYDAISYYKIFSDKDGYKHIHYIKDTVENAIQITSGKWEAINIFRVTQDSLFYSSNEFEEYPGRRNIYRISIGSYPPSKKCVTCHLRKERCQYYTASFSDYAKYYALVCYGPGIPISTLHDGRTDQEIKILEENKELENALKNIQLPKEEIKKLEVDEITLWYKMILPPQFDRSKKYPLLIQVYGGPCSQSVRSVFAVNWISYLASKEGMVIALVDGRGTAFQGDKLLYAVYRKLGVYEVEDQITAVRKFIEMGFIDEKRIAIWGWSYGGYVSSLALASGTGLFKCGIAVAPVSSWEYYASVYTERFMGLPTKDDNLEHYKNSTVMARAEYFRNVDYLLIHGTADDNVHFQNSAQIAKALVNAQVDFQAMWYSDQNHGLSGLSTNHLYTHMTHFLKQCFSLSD
# [2] = target: fibroblast activation protein (murine FAP, mFAP) (Mus musculus, UniProt P97321)
# Chain of fibroblast activation protein (murine FAP, mFAP) (P97321 whole entry): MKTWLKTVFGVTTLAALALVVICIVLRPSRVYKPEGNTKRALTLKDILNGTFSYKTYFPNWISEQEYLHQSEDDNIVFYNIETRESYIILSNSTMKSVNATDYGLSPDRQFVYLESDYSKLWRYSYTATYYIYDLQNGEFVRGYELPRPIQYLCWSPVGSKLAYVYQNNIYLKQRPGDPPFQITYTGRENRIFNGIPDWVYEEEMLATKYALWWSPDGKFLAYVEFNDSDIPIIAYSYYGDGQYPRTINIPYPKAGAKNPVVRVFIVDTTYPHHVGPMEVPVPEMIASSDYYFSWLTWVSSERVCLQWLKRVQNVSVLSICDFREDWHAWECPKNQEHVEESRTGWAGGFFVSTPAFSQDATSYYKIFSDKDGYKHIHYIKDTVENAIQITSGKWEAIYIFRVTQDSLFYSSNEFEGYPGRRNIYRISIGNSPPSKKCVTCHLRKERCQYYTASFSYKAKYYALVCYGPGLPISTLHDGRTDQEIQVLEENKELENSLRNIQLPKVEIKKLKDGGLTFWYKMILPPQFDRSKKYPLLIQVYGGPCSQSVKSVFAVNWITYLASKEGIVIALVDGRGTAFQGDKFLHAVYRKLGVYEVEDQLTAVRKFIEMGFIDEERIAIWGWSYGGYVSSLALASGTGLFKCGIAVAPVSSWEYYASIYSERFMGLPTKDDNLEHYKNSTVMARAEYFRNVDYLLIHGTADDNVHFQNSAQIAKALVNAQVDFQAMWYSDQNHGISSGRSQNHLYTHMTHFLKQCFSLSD
smiles,measurement,setting,value
"N#C[C@@H]1CCCN1C(=O)CNC(=S)Nc1ccc(CNC(=O)CCC2C(=O)[O][Ga]3[O]C(=O)CN4CCN(CCN2CC4)CC(=O)[O]3)cc1 (stereo partly drawn) [[^natGa]MHLL1, [^68Ga]Ga-2,2'-(7-(1-carboxy-4-((4-(3-(2-((S)-2-cyano-pyrrolidin-1-yl)-2-oxoethyl)thioureido)benzyl)amino)-4-oxobutyl)-1,4,7-triazonane-1,4-diyl)diacetic acid]",IC50,[1],212 nM
same,IC50,[2],142 nM
